Assay results from article PMC9883826 (Scientific Reports, 2023).
Converted amounts (≈) assume the structure as drawn. “Also recorded” adds a separate entry of the source. Where a name gives a salt, the structure may show the parent alone. Read-outs that look alike come from different tables or passages of the source.

Experiments:
[1] = in vivo; cited from earlier work
DENV-2 (dengue virus-2) = conditions: cited from earlier work
in vitro = conditions: dog
[2] = tested on: influenza A/chicken/Egypt/N12640A/2016(H5N1); experiment: microbe, parasite or virus in culture; type: cell-based, influenza A virus
[3] = tested on: influenza A/Egypt/NRC098/2019(H1N1); experiment: microbe, parasite or virus in culture; type: cell-based, influenza A virus; conditions: for IC50: Influenza A virus, H1N1, MDCK
[4] = tested on: severe acute respiratory syndrome coronavirus (SARS-CoV); conditions: cited from earlier work
HSV-2 [5] = conditions: cited from earlier work
influenza A/H5N1 virus [6] = experiment: microbe, parasite or virus in culture; type: cell-based
influenza A/H5N1 virus [7] = experiment: microbe, parasite or virus in culture; type: cell-based; remark: listed apart in the source
influenza A/H5N1 virus [8] = experiment: microbe, parasite or virus in culture; type: cell-based; conditions: H5N1, read-out: Viral inhibition (%) Mean
influenza A/H5N1 virus [9] = experiment: microbe, parasite or virus in culture; type: cell-based; remark: listed apart in the source
influenza A/H1N1 virus = experiment: microbe, parasite or virus in culture; type: cell-based; conditions: H1N1, read-out: Viral inhibition (%) Mean
HSV-1 = conditions: cited from earlier work
HSV-2 [10] = conditions: cited from earlier work; remark: listed apart in the source
MDCK cells = conditions: dog
[11] = Influenza A virus, H5N1, MDCK, 72 h
[12] = Influenza A virus, H5N1, read-out: Viral adsorption (%) viral inhibition
[13] = Influenza A virus, H5N1, read-out: Viral replication (%) viral inhibition
[14] = Influenza A virus, H5N1, read-out: Viricidal (%) viral inhibition
[15] = Influenza A virus, H5N1, MDCK, read-out: PIC50 H5N1

O=C1C[C@@H]2OCC=C3CN4CC[C@]56c7ccccc7N1[C@H]5[C@H]2[C@H]3C[C@H]46 [strychnine]
high dose causing muscle contraction and convulsions that can lead to respiratory paralysis [1]: 1.5 mg/kg

COc1ccc2c3ccnc(C)c3n(C)c2c1 [9 N methylharmine]
EC50 (DENV-2 (dengue virus-2)): 3.2 ± 0.6 µM

CC[C@@H](CO)NC(=O)[C@@H]1C=C2c3cccc4[nH]cc(c34)C[C@H]2N(C)C1 [Methyl ergometrine]
CC50 (in vitro): 8230 mg/L (≈ 24.2 mM) | anti-influenza activity against avian influenza A/H5N1 virus (in words) [2]: poor or no antiviral potential activity | IC50 [2, 11]: > 1000 mg/L

COC(=O)[C@H]1[C@H]2C[C@@H]3c4[nH]c5cc(OC)ccc5c4CCN3C[C@H]2C[C@@H](OC(=O)c2cc(OC)c(OC)c(OC)c2)[C@@H]1OC [Reserpine]
CC50 (in vitro): 1400 mg/L (≈ 2.3 mM) | Selectivity index (SI) [2]: > 33 | anti-influenza activity against avian influenza A/H5N1 virus (in words) [2]: moderate anti-influenza activity | IC50 [2, 11]: 42.4 mg/L | anti-influenza activity against human influenza A/H1N1 virus (in words) [3]: moderate anti-influenza potential | EC50 [4]: 3.4 µM

COc1ccc2c(c1)[nH]c1c(C)nccc12 [Harmine]
CC50 (in vitro): > 10000 mg/L | anti-influenza activity against avian influenza A/H5N1 virus (in words) [2]: poor or no antiviral potential activity; also recorded: no effect; also recorded: no anti-influenza activity | IC50 [2, 11]: > 10000 mg/L | EC50 (HSV-2 [5]): 1.47 µM

c1ccc2c(c1)[nH]c1cnccc12 [Norharmane]
CC50 (in vitro): > 10000 mg/L | anti-influenza activity against avian influenza A/H5N1 virus (in words) [2]: poor or no antiviral potential activity; also recorded: no effect | IC50 [2, 11]: > 10000 mg/L

COc1cc2c(cc1OC)[C@@]13CCN4CC5=CCO[C@H]6CC(=O)N2[C@H]1[C@H]6[C@H]5C[C@H]43 [Brucine]
CC50 (in vitro): > 10000 mg/L | anti-influenza activity against avian influenza A/H5N1 virus (in words) [2]: poor or no antiviral potential activity | IC50 [2, 11]: > 10000 mg/L

CC(=O)N[C@H]1[C@H]([C@H](O)[C@H](O)CO)OC(C(=O)O)=C[C@@H]1N=C(N)N [Zanamivir, reference compound]
CC50 (in vitro): > 10000 mg/L | Selectivity index (SI) [2]: > 1.26*10^5 | IC50 [2, 11]: 0.079 mg/L | Selectivity index (SI) [3]: > 3.4*10^4 | IC50 ([3]; 72 h): 0.291 mg/L

CNC(=O)Oc1ccc2c(c1)[C@]1(C)CCN(C)[C@@H]1N2C [Eserine]
CC50 (in vitro): > 10000 mg/L | anti-influenza activity against avian influenza A/H5N1 virus (in words) [2]: poor or no antiviral potential activity | IC50 [2, 11]: > 10000 mg/L | anti-influenza activity against human influenza A/H1N1 virus (in words) [3]: no antiviral activity

O=C1C[C@@H]2OCC=C3CN4CC[C@]56c7ccccc7N1[C@H]5[C@H]2[C@H]3C[C@H]46 [Strychnine Sulfate, Strychnine sulfate]
CC50 (in vitro): > 10000 mg/L | main stage of antiviral action: viral adsorption (in words) (influenza A/H5N1 virus [6]): hindering IAV adsorption to the host cell (MDCK) receptors | inhibition at 1 µg/mL (influenza A/H5N1 virus [6]; [12]): 90.1% | inhibition at 10 µg/mL (influenza A/H5N1 virus [6]; [12]): 99.5% | inhibition at 100 µg/mL (influenza A/H5N1 virus [6]; [12]): 99% | IC50 [2]: 11.851 mg/L | Selectivity index (SI) [2]: > 843 | IC50 [2, 11]: 11.8 mg/L | inhibition at 1 µg/mL (influenza A/H5N1 virus [7]; [13]): 19.4% | inhibition at 10 µg/mL (influenza A/H5N1 virus [7]; [13]): 27.3% | inhibition at 100 µg/mL (influenza A/H5N1 virus [7]; [13]): 42% | Selectivity index (SI) [3]: > 1.67*10^5 | IC50 ([3]; 72 h): 0.06 mg/L | inhibition at 1 µg/mL (influenza A/H5N1 virus [8]): 74.4% | inhibition at 10 µg/mL (influenza A/H5N1 virus [8]): 84% | inhibition at 100 µg/mL (influenza A/H5N1 virus [8]): 96.3% | inhibition at 1 µg/mL (influenza A/H5N1 virus [9]; [14]): 29.4% | inhibition at 10 µg/mL (influenza A/H5N1 virus [9]; [14]): 37% | inhibition at 100 µg/mL (influenza A/H5N1 virus [9]; [14]): 49.2% | inhibition at 1 µg/mL (influenza A/H1N1 virus): 65.5% | inhibition at 10 µg/mL (influenza A/H1N1 virus): 71.6% | inhibition at 100 µg/mL (influenza A/H1N1 virus): 87.4%

Cc1nccc2c1[nH]c1ccccc12 [Harmane]
CC50 (in vitro): 7180 mg/L (≈ 39.4 mM) | inhibition at 10 µg/mL (influenza A/H5N1 virus [6]; [12]): 43.4% | inhibition at 100 µg/mL (influenza A/H5N1 virus [6]; [12]): 48.7% | inhibition at 1000 µg/mL (influenza A/H5N1 virus [6]; [12]): 61.4% | IC50 [2, 11]: 0.023 mg/L | IC50 [2, 15]: 0.023 µM | EC50 (HSV-1): 4.90 mg/L (≈ 0.0269 mM) | main stage of antiviral action: viral replication (in words) (influenza A/H5N1 virus [7]): interference with the viral replication compartment | inhibition at 10 µg/mL (influenza A/H5N1 virus [7]; [13]): 83.3% | inhibition at 100 µg/mL (influenza A/H5N1 virus [7]; [13]): 97.5% | inhibition at 1000 µg/mL (influenza A/H5N1 virus [7]; [13]): 96.7% | Selectivity index (SI) [3]: > 2.17*10^5 | IC50 ([3]; 72 h): 0.033 mg/L | IC50 ([3]; read-out: PIC50 H1N1): 0.0182 µM | inhibition at 10 µg/mL (influenza A/H5N1 virus [8]): 65.5% | inhibition at 100 µg/mL (influenza A/H5N1 virus [8]): 74.4% | inhibition at 1000 µg/mL (influenza A/H5N1 virus [8]): 85% | EC50 (HSV-2 [10]): 71.8 mg/L (≈ 0.394 mM) | inhibition at 10 µg/mL (influenza A/H5N1 virus [9]; [14]): 31.8% | inhibition at 100 µg/mL (influenza A/H5N1 virus [9]; [14]): 41.8% | inhibition at 1000 µg/mL (influenza A/H5N1 virus [9]; [14]): 82.1% | inhibition at 10 µg/mL (influenza A/H1N1 virus): 55.1% | inhibition at 100 µg/mL (influenza A/H1N1 virus): 74.4% | inhibition at 1000 µg/mL (influenza A/H1N1 virus): 84.6%

NC12CC3CC(CC(C3)C1)C2 [Amantadine HCl, reference compound]
CC50 (in vitro): 1100 mg/L | Selectivity index (SI) [2]: 62.71 | IC50 [2, 11]: 17.6 mg/L | Selectivity index (SI) [3]: 74.32 | IC50 ([3]; 72 h): 14.9 mg/L | CC50 (MDCK cells): 1103 mg/L

COc1ccc2c3c([nH]c2c1)C(C)=NCC3 [Harmaline]
CC50 (in vitro): 475 mg/L (≈ 2.22 mM) | inhibition at 1 µg/mL (influenza A/H5N1 virus [6]; [12]): 34% | inhibition at 10 µg/mL (influenza A/H5N1 virus [6]; [12]): 46.2% | inhibition at 100 µg/mL (influenza A/H5N1 virus [6]; [12]): 51.8% | Selectivity index (SI) [2]: 138 | IC50 [2, 11]: 3.42 mg/L | IC50 [2, 15]: 28.1 µM | inhibition at 1 µg/mL (influenza A/H5N1 virus [7]; [13]): 28.3% | inhibition at 10 µg/mL (influenza A/H5N1 virus [7]; [13]): 40.3% | inhibition at 100 µg/mL (influenza A/H5N1 virus [7]; [13]): 48.7% | Selectivity index (SI) [3]: 8482 | IC50 ([3]; 72 h): 0.056 mg/L | IC50 ([3]; read-out: PIC50 H1N1): 0.02 µM | inhibition at 1 µg/mL (influenza A/H5N1 virus [8]): 72.6% | inhibition at 10 µg/mL (influenza A/H5N1 virus [8]): 87.7% | inhibition at 100 µg/mL (influenza A/H5N1 virus [8]): 94.2% | main stage of antiviral action: viricidal (in words) (influenza A/H5N1 virus [9]): direct cell-free viricidal effect | inhibition at 1 µg/mL (influenza A/H5N1 virus [9]; [14]): 91% | inhibition at 10 µg/mL (influenza A/H5N1 virus [9]; [14]): 96.7% | inhibition at 100 µg/mL (influenza A/H5N1 virus [9]; [14]): 98.6% | inhibition at 1 µg/mL (influenza A/H1N1 virus): 66.7% | inhibition at 10 µg/mL (influenza A/H1N1 virus): 77.8% | inhibition at 100 µg/mL (influenza A/H1N1 virus): 86.5%

CC1=NCCc2c1[nH]c1cc(O)ccc21 [Harmalol]
CC50 (in vitro): > 10000 mg/L | inhibition at 0.1 µg/mL (influenza A/H5N1 virus [6]; [12]): 60.3% | inhibition at 1 µg/mL (influenza A/H5N1 virus [6]; [12]): 74.5% | inhibition at 10 µg/mL (influenza A/H5N1 virus [6]; [12]): 82.1% | Selectivity index (SI) [2]: > 5*10^5 | IC50 [2, 11]: 0.02 mg/L | IC50 [2, 15]: 0.021 µM | main stage of antiviral action: viral replication (in words) (influenza A/H5N1 virus [7]): interference with the viral replication compartment | inhibition at 0.1 µg/mL (influenza A/H5N1 virus [7]; [13]): 87.5% | inhibition at 1 µg/mL (influenza A/H5N1 virus [7]; [13]): 96.9% | inhibition at 10 µg/mL (influenza A/H5N1 virus [7]; [13]): 98.7% | Selectivity index (SI) [3]: > 2.8*10^5 | IC50 ([3]; 72 h): 0.035 mg/L | IC50 ([3]; read-out: PIC50 H1N1): 0.02 µM | inhibition at 0.1 µg/mL (influenza A/H5N1 virus [8]): 54.7% | inhibition at 1 µg/mL (influenza A/H5N1 virus [8]): 73.3% | inhibition at 10 µg/mL (influenza A/H5N1 virus [8]): 86.4% | inhibition at 0.1 µg/mL (influenza A/H5N1 virus [9]; [14]): 41.5% | inhibition at 1 µg/mL (influenza A/H5N1 virus [9]; [14]): 50.9% | inhibition at 10 µg/mL (influenza A/H5N1 virus [9]; [14]): 58% | inhibition at 0.1 µg/mL (influenza A/H1N1 virus): 74.3% | inhibition at 1 µg/mL (influenza A/H1N1 virus): 79.6% | inhibition at 10 µg/mL (influenza A/H1N1 virus): 91.8%
